Source: PMC12692169, “Identification of Novel TAT-I24-Related Peptides with Antiviral Activities” (International Journal of Molecular Sciences, 2025)
Residues, ends and D or L forms follow the SMILES beside them.

Legend:
Baculovirus/HEK293 = conditions: 24 h
[1] = system: mouse cytomegalovirus (MCMV)/NIH/3T3 cells; conditions: 72 h
red blood cells (RBC) = assay: RBC swelling (enlarged pellet after centrifugation); conditions: 1 h; for RBC swelling: peptides diluted in PBS (absence of serum), up to 20 µM, pellet size after centrifugation

CC(C)[C@H](NC(=O)[C@H](CO)NC(=O)[C@H](CCC(N)=O)NC(=O)[C@@H]1CCCN1C(=O)[C@@H]1CCCN1C(=O)[C@H](CCCNC(=N)N)NC(=O)[C@H](CCCNC(=N)N)NC(=O)[C@H](CCCNC(=N)N)NC(=O)[C@H](CCC(N)=O)NC(=O)[C@H](CCCNC(=N)N)NC(=O)[C@H](CCCNC(=N)N)NC(=O)[C@H](CCCCN)NC(=O)[C@H](CCCCN)NC(=O)[C@H](CCCNC(=N)N)NC(=O)CN)C(=O)N[C@@H](Cc1ccccc1)C(=O)N[C@@H](Cc1ccc(O)cc1)C(=O)N[C@@H](C)C(=O)N[C@@H](CS)C(=O)N[C@@H](Cc1ccccc1)C(=O)N[C@@H](C)C(=O)N[C@@H](CS)C(=O)O [TAT-De1] (H-GRKKRRQRRRPPQSVFYACFAC-OH)
IC50 (Baculovirus/HEK293): 37 nM
IC50 [1]: 1610 nM
RBC swelling (red blood cells (RBC)): less effect on RBC swelling

CC(C)C[C@H](NC(=O)[C@H](CS)NC(=O)[C@H](CCC(N)=O)NC(=O)[C@@H]1CCCN1C(=O)[C@@H]1CCCN1C(=O)[C@H](CCCNC(=N)N)NC(=O)[C@H](CCCNC(=N)N)NC(=O)[C@H](CCCNC(=N)N)NC(=O)[C@H](CCC(N)=O)NC(=O)[C@H](CCCNC(=N)N)NC(=O)[C@H](CCCNC(=N)N)NC(=O)[C@H](CCCCN)NC(=O)[C@H](CCCCN)NC(=O)[C@H](CCCNC(=N)N)NC(=O)CN)C(=O)N[C@@H](C)C(=O)N[C@@H](Cc1ccccc1)C(=O)N[C@@H](Cc1ccc(O)cc1)C(=O)N[C@@H](C)C(=O)N[C@@H](CS)C(=O)N[C@@H](Cc1ccccc1)C(=O)N[C@@H](CS)C(=O)O [TAT-I24] (H-GRKKRRQRRRPPQCLAFYACFC-OH)
IC50 (Baculovirus/HEK293): 16 nM
IC50 [1]: 809 nM
RBC swelling in the presence of serum (red blood cells (RBC); peptides diluted in 10% human/donor serum): not in the presence of donor serum
RBC swelling (red blood cells (RBC)): caused RBC swelling at higher concentrations

CC[C@H](C)[C@H](NC(=O)[C@H](C)NC(=O)[C@H](CC(C)C)NC(=O)[C@H](CS)NC(=O)[C@H](CCC(N)=O)NC(=O)[C@@H]1CCCN1C(=O)[C@@H]1CCCN1C(=O)[C@H](CCCNC(=N)N)NC(=O)[C@H](CCCNC(=N)N)NC(=O)[C@H](CCCNC(=N)N)NC(=O)[C@H](CCC(N)=O)NC(=O)[C@H](CCCNC(=N)N)NC(=O)[C@H](CCCNC(=N)N)NC(=O)[C@H](CCCCN)NC(=O)[C@H](CCCCN)NC(=O)[C@H](CCCNC(=N)N)NC(=O)CN)C(=O)N[C@@H](Cc1ccc(O)cc1)C(=O)N[C@@H](CC(=O)O)C(=O)N[C@@H](CS)C(=O)N[C@@H](Cc1ccccc1)C(=O)N[C@@H](CS)C(=O)O [TAT-M13] (H-GRKKRRQRRRPPQCLAIYDCFC-OH)
IC50 (Baculovirus/HEK293): 31 nM
IC50 [1]: 1220 nM
RBC swelling (red blood cells (RBC)): caused RBC swelling at higher concentrations

CC(C)C[C@H](NC(=O)[C@H](CS)NC(=O)[C@H](CCC(N)=O)NC(=O)[C@@H]1CCCN1C(=O)[C@@H]1CCCN1C(=O)[C@H](CCCNC(=N)N)NC(=O)[C@H](CCCNC(=N)N)NC(=O)[C@H](CCCNC(=N)N)NC(=O)[C@H](CCC(N)=O)NC(=O)[C@H](CCCNC(=N)N)NC(=O)[C@H](CCCNC(=N)N)NC(=O)[C@H](CCCCN)NC(=O)[C@H](CCCCN)NC(=O)[C@H](CCCNC(=N)N)NC(=O)CN)C(=O)N[C@@H](C)C(=O)N[C@H](C(=O)N[C@@H](Cc1ccc(O)cc1)C(=O)N[C@@H](CC(=O)O)C(=O)N[C@@H](CS)C(=O)N[C@@H](Cc1ccccc1)C(=O)N[C@H](C(=O)O)C(C)C)C(C)C [TAT-M17] (H-GRKKRRQRRRPPQCLAVYDCFV-OH; N-terminus and C-terminus assumed)
IC50 (Baculovirus/HEK293): 102 nM
IC50 [1]: 5850 nM
RBC swelling (red blood cells (RBC)): did not cause RBC swelling in the absence of serum even at 20 µM

CC(C)C[C@H](NC(=O)[C@H](CS)NC(=O)[C@H](CCC(N)=O)NC(=O)[C@@H]1CCCN1C(=O)[C@@H]1CCCN1C(=O)[C@H](CCCNC(=N)N)NC(=O)[C@H](CCCNC(=N)N)NC(=O)[C@H](CCCNC(=N)N)NC(=O)[C@H](CCC(N)=O)NC(=O)[C@H](CCCNC(=N)N)NC(=O)[C@H](CCCNC(=N)N)NC(=O)[C@H](CCCCN)NC(=O)[C@H](CCCCN)NC(=O)[C@H](CCCNC(=N)N)NC(=O)CN)C(=O)N[C@@H](C)C(=O)N[C@H](C(=O)N[C@@H](Cc1c[nH]cn1)C(=O)N[C@@H](CC(=O)O)C(=O)N[C@@H](CS)C(=O)N[C@@H](Cc1ccccc1)C(=O)N[C@H](C(=O)O)C(C)C)C(C)C [TAT-M22] (H-GRKKRRQRRRPPQCLAVHDCFV-OH; N-terminus and C-terminus assumed)
IC50 (Baculovirus/HEK293): 245 nM
IC50 [1]: 11800 nM
RBC swelling (red blood cells (RBC)): did not cause RBC swelling in the absence of serum even at 20 µM

CC(C)C[C@H](NC(=O)[C@H](CS)NC(=O)[C@H](C)NC(=O)[C@H](Cc1ccc(O)cc1)NC(=O)[C@H](Cc1ccccc1)NC(=O)[C@H](C)NC(=O)[C@H](CC(C)C)NC(=O)[C@H](CCC(N)=O)NC(=O)[C@@H]1CCCN1C(=O)[C@@H]1CCCN1C(=O)[C@H](CCCNC(=N)N)NC(=O)[C@H](CCCNC(=N)N)NC(=O)[C@H](CCCNC(=N)N)NC(=O)[C@H](CCC(N)=O)NC(=O)[C@H](CCCNC(=N)N)NC(=O)[C@H](CCCNC(=N)N)NC(=O)[C@H](CCCCN)NC(=O)[C@H](CCCCN)NC(=O)[C@H](CCCNC(=N)N)NC(=O)CN)C(=O)N[C@@H](C)C(=O)N[C@@H](Cc1ccccc1)C(=O)O [TAT-M40] (H-GRKKRRQRRRPPQLAFYACLAF-OH)
IC50 (Baculovirus/HEK293): 21 nM
IC50 [1]: 1850 nM
RBC swelling (red blood cells (RBC)): caused RBC swelling at higher concentrations

CC(C)C[C@H](NC(=O)[C@H](CS)NC(=O)[C@H](C)NC(=O)[C@H](Cc1ccc(O)cc1)NC(=O)[C@H](Cc1ccccc1)NC(=O)[C@H](C)NC(=O)[C@H](CC(C)C)NC(=O)[C@H](CS)NC(=O)[C@@H]1CCCN1C(=O)[C@H](CCCNC(=N)N)NC(=O)[C@H](CCCNC(=N)N)NC(=O)[C@H](CCCNC(=N)N)NC(=O)[C@H](CCC(N)=O)NC(=O)[C@H](CCCNC(=N)N)NC(=O)[C@H](CCCNC(=N)N)NC(=O)[C@H](CCCCN)NC(=O)[C@H](CCCCN)NC(=O)[C@H](CCCNC(=N)N)NC(=O)CN)C(=O)N[C@@H](C)C(=O)N[C@@H](Cc1ccccc1)C(=O)N[C@@H](Cc1ccc(O)cc1)C(=O)N[C@@H](C)C(=O)N[C@@H](CS)C(=O)O [TAT-M212] (H-GRKKRRQRRRPCLAFYACLAFYAC-OH)
IC50 (Baculovirus/HEK293): 619 nM
IC50 [1]: 18200 nM
RBC swelling (red blood cells (RBC)): caused RBC swelling over a broad concentration range comparable to TAT-M214

CC(C)C[C@H](NC(=O)[C@H](CO)NC(=O)[C@H](C)NC(=O)[C@H](Cc1ccc(O)cc1)NC(=O)[C@H](Cc1ccccc1)NC(=O)[C@H](C)NC(=O)[C@H](CC(C)C)NC(=O)[C@H](CCC(N)=O)NC(=O)[C@@H]1CCCN1C(=O)[C@@H]1CCCN1C(=O)[C@H](CCCNC(=N)N)NC(=O)[C@H](CCCNC(=N)N)NC(=O)[C@H](CCCNC(=N)N)NC(=O)[C@H](CCC(N)=O)NC(=O)[C@H](CCCNC(=N)N)NC(=O)[C@H](CCCNC(=N)N)NC(=O)[C@H](CCCCN)NC(=O)[C@H](CCCCN)NC(=O)[C@H](CCCNC(=N)N)NC(=O)CN)C(=O)N[C@@H](C)C(=O)N[C@@H](Cc1ccccc1)C(=O)O [TAT-M219] (H-GRKKRRQRRRPPQLAFYASLAF-OH)
IC50 (Baculovirus/HEK293): 96 nM
IC50 [1]: 7380 nM
RBC swelling (red blood cells (RBC)): did not cause RBC swelling in the absence of serum even at 20 µM
